These results are taken from US6582910B1, “WbpP and method for assay of WbpP” (priority 1999, dated 2003).

The target of data set [1] is T1, WbpP (Pseudomonas aeruginosa, UniProt Q8KN66).
T1 construct: made in house; host or cells: E. coli BL21(DE3)pLysS, pET23 derivative
The data set can be described thus: DMAB spectrophotometric assay of epimerisation of UDP-GlcNAc and UDP-GalNAc. In kind it is biochemical. The settings on record: for Specific activity: 0.75 mM substrate. As to the method:
Determination of the enzymatic conversion of UDP-GlcNAc and UDP-GalNAc using p-dimethylaminobenzaldehyde (DMAB)—Reactions were performed with a total reaction volume of 35 μl at 37° C. in 20 mM Tris pH 8 unless stated otherwise. The specific amount of enzyme used, substrate concentrations, and incubation time are indicated in the legend of each figure. The reactions were stopped by acid hydrolysis of the UDP moiety of the substrate. For this purpose, the samples were acidified to pH 2 by addition of 7 μl of HCl 0.1 N, boiled for 6 min, and neutralised by addition of 7 μl of NaOH 0.1 N. For the spectrophotometric quantification of GalNAc and GlcNAc, the reagent DMAB was prepared at 10% in glacial acetic acid/HCl 9/1 v/v, and further diluted 1/10 in glacial acetic acid before use (Reissig et al. (1955)). For the assay itself, 100 μl of 0.2 M sodium tetraborate pH 9.1 were added to 50 μl of quenched and neutralised enzymatic reactions and boiled immediately for 3 min. 40 μl of this mixture were transferred to a microtitration plate and 200 μl of DMAB reagent were added. After incubation for 30 min at 37° C., the OD595 nm was recorded using a microplate reader. For practical reasons, the DMAB assay was carried out using a wavelength setting of 595 nm in the spectrophotometer. […] The assay was done in duplicate for each reaction tested. Standard curves were prepared using UDP-GlcNAc and UDP-GalNAc that were subjected to acid hydrolysis in the same conditions as described above.
FIG. 3: Study of the epimerisation of UDP-GlcNAc and UDP-GalNAc by WbpP using the DMAB assay. Panel A, standard curves obtained with each compound separately. Open circles, UDP-GlcNAc; Open squares, UDP-GalNAc. Panel B, comparison of the experimental data (closed triangles) obtained for mixtures of UDP-GalNAc and UDP-GlcNAc of different proportions (constant total sugar-nucleotide concentration of 0.75 mM) and the theoretical data (open triangles) calculated from the standard curves from panel 3A. 3C: Activity of WbpP as a function of the amount of enzyme added. The reactions were performed with […] substrate in a total volume of 35 μl for 8 min at 37° C. Closed circles, UDP-GlcNAc; Closed squares, UDP-GalNAc.
FIG. 6: Determination of the optimum pH and temperature for the epimerisation of UDP-GlcNAc by WbpP using the DMAB assay: For the pH study (panel A), the reactions were performed with 5 mM UDP-GlcNAc and 39 ng of enzyme in a total volume of 44 μl and incubated for 10 min at 37° C. The pH between 5 and 7 were obtained with 50 mM sodium acetate buffer (open circles), whereas pH 7 to 10 were obtained with 50 mM Tris-HCl (closed circles). For the temperature study (panel B), the reactions were performed in 50 mM Tris-HCl pH 8 with 5 mM UDP-GlcNAc and 0.78 ng of enzyme in a total volume of 44 μl and 30 min incubation. For both panels, two enzymatic reactions were set up in each experimental condition and two determinations of residual UDP-GlcNAc were made per reaction. Each point represents the average of the four determinations.

The target in data set [2] is T1, WbpP. The data set can be described thus: Capillary electrophoresis, kinetic parameters for UDP-GlcNAc and UDP-GalNAc. The class given is biochemical. The settings on record: acetylated substrates; for kcal: CE; for Km / Vmax: initial rates, 3 min, 37° C., 20 mM Tris pH 8, CE. As to the method: Determination of the kinetic parameters for UDP-GlcNAc and UDP-GalNAc by capillary electrophoresis—Reactions were performed at 37° C. in 20 mM Tris pH 8 with a total reaction volume of 44 μl. The amount of purified enzyme added was 234 ng and 117 ng for reaction with UDP-GlcNAc and UDP-GalNAc, respectively. After incubation at 37° C. for the required amount of time, the reactions were quenched by boiling the sample for 6 min. Time course studies were performed with final sugar-nucleotide concentrations of 0.075 and 1.75 mM. Samples were quenched after 0, 2, 4, 6, 8, 10 and 15 min. […] Capillary electrophoresis (CE) analysis was performed using a P/ACE 5000 system (Beckman, Fullerton, Calif.) with UV detection. The running buffer was 25 mM sodium tetraborate pH 9.4. The capillary was bare silica 75 μm×57 cm, with a detector at 50 cm. The capillary was conditioned before each run by washing with 0.2 M NaOH for 2 min, water for 2 min, and running buffer for 2 min. Samples were introduced by pressure injection for 4 s and the separation was performed at 22 kV. Peak integration was done using the Beckman P/ACE Station software. The calculation of kinetic parameters was done using the PRISM program.
FIG. 4: Capillary electrophoresis analysis of the epimerisation of UDP-GlcNAc and UDP-GalNAc by WbpP at equilibrium. The reactions were performed in a total volume of 35 μl with 1.5 mM substrate and 17 μg of enzyme. They were incubated at 37° C. for 2 h. 1, UDP-GalNAc alone; 2, UDP-GlcNAc alone; 3, UDP-GlaNAc+WbpP; 4, UDP-GlcNAc+WbpP.
FIG. 5: Time Course of epimerisation of UDP-GlcNAc and UDP-GalNAc by WbpP as measured by capillary electrophoresis. Reactions were performed at 37° C. in 20 mM Tris pH 8 with a total reaction volume of 44 μl. The amount of purified enzyme added was 234 ng and 117 ng for reaction with UDP-GlcNAc and UDP-GalNAc, respectively. Closed circles, UDP-GlcNAc 0.075 mM; Closed squares, UDP-GalNAc 0.075 mM; Open circles, UDP-GlcNAc 1.75 mM; Open squares, UDP-GalNAc 1.75 mM.

Data set [3] deals with T1, WbpP. Description: Requirement for NAD+ or divalent cations for enzymatic activity (capillary electrophoresis). In kind it is biochemical. To be noted: NAD+ 1 mM, divalent cations 4 mM, acetylated or non-acetylated substrates. As to the method:
Study of the Requirement for NAD+ or divalent cations for enzymatic activity—To access the requirement for NAD+ or divalent cations for the enzymatic activity of WbpP, reactions were carried out with or without NAD+ (1 mM final concentration), and with or without divalent cations (4 mM final concentration of MnCl2, MgCl2, or CaCl2) and monitored by capillary electrophoresis as described above.

Data set [4] is described as follows: Storage stability of purified WbpP. The class given is physicochemical. The settings on record: −20° C. in 25% glycerol or 20% adonitol in Tris pH 8. Here is the method: Purification of WbpP by chromatography—Cells sedimented from 100 ml induced culture were resuspended in 10 ml of buffer A (5 mM imidazole, 20 mM Tris pH 8, 0.1 M NaCl). The cells were briefly sonicated (macrotip, sonicator XL2020 Heat systems Incorporated, power set to 4, 2 min total, 5 sec on, 5 sec off) on ice. Cell debris were removed by centrifugation at 13000×g for 15 min at 4° C. and the supernatant was applied to a 3 ml fast flow cielating sepharose column (Amersham-Pharmacia, Quebec) previously loaded with nickel sulfate (30 ml of 0.1 M) and equilibrated with 5 column volumes (CV) of buffer A. Loading of the sample as well as all washing and elution steps were done by gravity. After loading of the sample, the column was washed with 10 CV of buffer A and 5 CV of buffer B (20 mM imidazole, 20 mM Tris pH 8, 0.1M NaCl). Elution was carried out with 3 CV of buffer C (1 M imidazole, 20 mM Tris pH 8, 0.5 M NaCl 0.1 M). Fractions were collected every 1 CV. […] This fraction was subjected to further purification by anion exchange chromatography after dilution 1/30 in 50 mM Tris pH 8. Half of it was loaded onto a 1 ml column of Q Sepharose fast flow (Pharmacia). The column was washed with 30 CV of Tris buffer and the protein was eluted with 3 CV of 50 mM Tris pH 8, 0.5 M NaCl. […] Protein quantitation was done using the BCA reagent (Pierce, Rockford, Ill.).

Data set [5] concerns the molecule itself. The data set can be described thus: gel filtration on G100 Sephadex, self-association (homodimer). (SEC sorts molecules by how far they enter the pores of the column.)
Setting [6] is: fraction: anion exchange (purified WbpP).

One may read the Km as the concentration of substrate that gives half-maximal velocity. Usually Vmax stands for the rate approached at saturating substrate.

“Also recorded” adds a separate entry of the source.

Take `CC(=O)N[C@H]1[C@@H](OP(=O)(O)OP(=O)(O)OC[C@H]2O[C@@H](n3ccc(=O)[nH]c3=O)[C@H](O)[C@@H]2O)O[C@H](CO)[C@H](O)[C@@H]1O` [UDP-GalNAc, UDP-N-acetylgalactosamine]: the “Maximum substrate conversion (at equilibrium)” value at WbpP [1] (acetylated substrates, epimerisation by WbpP) was ~70%. The Specific activity on WbpP [1] (fraction: IMAC) was found to be 4.6 U/mg; on WbpP [1] (setting [6]), 5.6 U/mg; at WbpP [1] (fraction: soluble fraction), 3.4 U/mg; on WbpP [1] (fraction: total cell extract), 2.6 U/mg. Besides, the “Specific activity of purified WbpP” value at WbpP [1] is given as 5.6 Units/mg. For the same molecule, on WbpP [2], the kcal came out at 271 ± 7 min⁻¹. Further, the Michaelis-Menten constant (Km) on WbpP [2] amounted to 197 µM. Moreover, the Vmax at WbpP [2] was determined as 840 ± 25 pmol/min.
Turning to `[Cl][Mn][Cl]` [Mn^2+], the “Necessity of addition to the reaction mixture for the C4 epimerase activity” value (“Necessity of addition” below) on WbpP [3] is recorded as “not necessary; also recorded: active without requiring addition”.
As to `[Cl-].[Cl-].[Mg+2]` [Mg^2+], the “Necessity of addition” value is given as “active without requiring addition” on WbpP [3] and “not necessary” at WbpP [3] (listed as Mg2^1).
With `CC(=O)N[C@H]1[C@@H](OP(=O)(O)OP(=O)(O)OC[C@H]2O[C@@H](n3ccc(=O)[nH]c3=O)[C@H](O)[C@@H]2O)O[C@H](CO)[C@@H](O)[C@@H]1O` [UDP-GlcNAc, UDP-N-acetylglucosamine], the Specific activity at WbpP [1] (fraction: IMAC) is given as 2.0 U/mg; on WbpP [1] (setting [6]), 2.3 U/mg; on WbpP [1] (fraction: soluble fraction), 1.1 U/mg; at WbpP [1] (fraction: total cell extract), 0.2 U/mg. The “Specific activity of purified WbpP” value at WbpP [1] stood at 2.3 Units/mg. At WbpP [2], the kcal turned out to be 120 ± 3 min⁻¹. The Michaelis constant (Km) on WbpP [2] amounted to 224 µM. For the same molecule, the maximal velocity (Vmax) on WbpP [2] worked out at 741 ± 22 pmol/min.
For `[Ca+2].[Cl-].[Cl-]` [Ca^2+], on WbpP [3], the “Necessity of addition” value is recorded as “not necessary; also recorded: active without requiring addition”.
Turning to `NC(=O)c1ccc[n+]([C@@H]2O[C@H](COP(=O)([O-])OP(=O)(O)OC[C@H]3O[C@@H](n4cnc5c(N)ncnc54)[C@H](O)[C@@H]3O)[C@@H](O)[C@H]2O)c1` [NAD^+], the “Necessity of addition” value at WbpP [3] is given as “active without requiring addition”; on WbpP [3] (listed as NAD^1), “not necessary”.

B1: WbpPO6 carrying a N-terminal hexahistidine tag (enzyme)
chain: MHHHHHHGSMGMMSRYEELRKELPAQPKVWLITGVAGFIGSNLLETLLKLDQKVVGLDNFATGHQRNLDEVRSLVSEKQWSNFKFIQGDIRNLDDCNNACAGVDYVLHQAALGSVPRSINDPITSNATNIDGFLNMLIAARDAKVQSFTYAASSSTYGDHPGLPKVEDTIGKPLSPYAVTKYVNELYADVFSRCYGFSTIGLRYFNVFGRRQDPNGAYAAVIPKWTSSMIQGDDVYINGDGETSRDFCYIENTVQANLLAATAGLDARNQVYNIAVGGRTSLNQLFFALRDGLAENGVSYHREPVYRDFREGDVRHSLADISKAAKLLGYAPKYDVSAGVALAMPWYIMFLK
notes: Expressed in E. coli BL21(DE3)pLysS from a pET23 derivative and purified by nickel chelation and anion exchange; In the Western immunoblot it stood as the SDS-denatured single chain; this is not a protein partner; also called WbpP epimerase; UDP-GlcNAc C4 epimerase
Turning to B1, the “pH with significant activity” value with WbpP [1] (epimerisation of UDP-GlcNAc) was > 6.5. Also, the Activity after storage entry in data set [4] is recorded as “without any significant loss of activity”. For the same molecule, the binding result in data set [5] is recorded as “binds”.
